Assay [1] has as its system A. fumigatus (Af-293). The experiment in a line: microbe, parasite or virus in culture. The note with it: Aspergillus fumigatus, read-out: MIC A. fumigatus (Af-293). It counts as cell-based.
The test system of assay [2] is A. fumigatus (Af-293). The experiment in a line: Kill kinetics assay. The assay is classed as cell-based, Aspergillus fumigatus. The note with it: MIC and 4×MIC, compared to 3b and 4b.
In assay [3] the test system is A. fumigatus (Af-293). The experiment in a line: microbe, parasite or virus in culture. It counts as cell-based, Aspergillus fumigatus. To be noted: Aspergillus fumigatus.

This note sets out measurements from article PMC12207910 (European journal of pharmaceutical sciences : official …, 2024).

In brackets after ≈: the same amount, converted by molar mass. Read-outs that look alike come from different tables or passages of the source.

As to `C[C@@H]1[C@H](O)[C@@H](C)/C=C/C=C/C=C/C=C/C=C/C=C/C=C/[C@H](O[C@@H]2O[C@H](C)[C@@H](O)[C@H](N)[C@@H]2O)C[C@@H]2O[C@](O)(C[C@@H](O)C[C@@H](O)[C@H](O)CC[C@@H](O)C[C@@H](O)CC(=O)O[C@H]1C)C[C@H](O)[C@H]2C(=O)O` [Amphotericin B, reference compound], the MIC with A. fumigatus (Af-293) [1] was determined as 0.7 µg/mL (≈ 0.758 µM); in the assay on A. fumigatus (Af-293) [3] (read-out: MIC CaCl2) it was 0.7 µg/mL (≈ 0.758 µM); with A. fumigatus (Af-293) [3] (read-out: MIC Control), 0.7 µg/mL (≈ 0.758 µM); with A. fumigatus (Af-293) [3] (read-out: MIC FBS (25%)) it was 0.7 µg/mL (≈ 0.758 µM); with A. fumigatus (Af-293) [3] (read-out: MIC KCl) it was 0.7 µg/mL (≈ 0.758 µM); in the assay with A. fumigatus (Af-293) [3] (read-out: MIC MgCl2), 1.5 µg/mL (≈ 1.62 µM). The MIC in the assay on A. fumigatus (Af-293) [3] (read-out: MIC NH4Cl) and with A. fumigatus (Af-293) [3] (read-out: MIC NaCl) was 0.7 µg/mL (≈ 0.758 µM) each time. Further, the “fungicidal effect in kill kinetics” value with A. fumigatus (Af-293) [2] is recorded as “mild fungicidal effect”.
